Assay results reported in the supplement of paper PMC10307832.

Legend:
Test in all cases: relative viability (nuclei count vs DMSO), 5 days (fraction); higher = more cells survive
Tosedostat + Palbociclib = compound: CC(C)C[C@@H](C(=O)N[C@H](C(=O)OC1CCCC1)c1ccccc1)[C@H](O)C(=O)NO [Tosedostat] + CC(=O)c1c(C)c2cnc(Nc3ccc(N4CCNCC4)cn3)nc2n(C2CCCC2)c1=O [Palbociclib] (partner 0.5 µM)
How it was run: (§1)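 Cells from lung cancer lines were seeded into 1536-well plates and, one day later, dosed by pin tool. Treatments were either a single drug or a fixed dose of an anchor drug with five library-drug doses (not always all listed) in √10 steps. After 5 days, nuclei were stained in a one-step fixation (final 0.05% Triton X-100, 1% formaldehyde, 1 ug/ml Hoechst) and counted on 4× images, and relative viability is the treated-to-vehicle nuclei ratio, as the median of duplicate plates.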

Tosedostat + Crizotinib = compound: CC(C)C[C@@H](C(=O)N[C@H](C(=O)OC1CCCC1)c1ccccc1)[C@H](O)C(=O)NO [Tosedostat] + C[C@@H](Oc1cc(-c2cnn(C3CCNCC3)c2)cnc1N)c1c(Cl)ccc(F)c1Cl [Crizotinib] (partner 1 µM)
How it was run: as §1

[1] = compound: CC1=NN=C(O1)C2=NN=C(C=C2)N3CCC(CC3)OC4=C(C=CC(=C4)F)Cl + CC(C)C[C@H](NC(=O)[C@H](Cc1ccccc1)NC(=O)c1cnccn1)B(O)O [Bortezomib] (partner 0.002 µM)
How it was run: as §1

[2] = compound: CC1=NN=C(O1)C2=NN=C(C=C2)N3CCC(CC3)OC4=C(C=CC(=C4)F)Cl + O=C(CCCCCCC(=O)Nc1ccccc1)NO [Vorinostat] (partner 1 µM)
How it was run: as §1

Cell Line	relative viability (Tosedostat + Palbociclib; first compound 0.02 µM)	relative viability (Tosedostat + Palbociclib; first compound 0.06325 µM)	relative viability (Tosedostat + Palbociclib; first compound 0.2 µM)	relative viability (Tosedostat + Palbociclib; first compound 0.6325 µM)	relative viability (Tosedostat + Palbociclib; first compound 2 µM)	relative viability (Tosedostat + Crizotinib; first compound 0.02 µM)	relative viability (Tosedostat + Crizotinib; first compound 0.06325 µM)	relative viability (Tosedostat + Crizotinib; first compound 0.2 µM)	relative viability (Tosedostat + Crizotinib; first compound 0.6325 µM)	relative viability (Tosedostat + Crizotinib; first compound 2 µM)	relative viability ([1]; first compound 0.253 µM)	relative viability ([1]; first compound 0.8 µM)	relative viability ([1]; first compound 2.53 µM)	relative viability ([1]; first compound 8 µM)	relative viability ([2]; first compound 0.253 µM)	relative viability ([2]; first compound 0.8 µM)	relative viability ([2]; first compound 2.53 µM)	relative viability ([2]; first compound 8 µM)
NCI-H1915	0.41	0.512	0.554	0.523	0.495	0.922	0.894	0.901	0.905	0.79	0.4	0.31	0.456	0.323	0.457	0.219	0.401	0.325
NCI-H1975	0.574	0.53	0.561	0.432	0.415	0.939	1.01	1.1	0.773	0.802	–	0.367	0.299	0.306	0.606	0.643	0.629	0.619
NCI-H1993	0.72	0.688	0.698	0.67	0.562	0.994	0.761	0.779	0.688	0.685	0.922	0.901	0.925	0.966	0.681	0.763	0.766	0.762
NCI-H2009	0.252	0.212	0.254	0.274	0.181	1.07	1.07	1	1.02	0.924	0.555	0.426	0.523	0.493	0.428	0.343	0.422	0.36
NCI-H2023	0.333	0.331	0.368	0.344	0.424	0.689	0.609	0.747	0.696	0.637	0.49	0.415	0.505	0.386	0.357	0.268	0.309	0.322
NCI-H2085	–	0.498	0.474	0.512	0.561	0.842	0.98	0.91	0.896	0.814	0.745	0.813	1.03	0.761	0.649	0.557	0.687	0.58
NCI-H2087	0.247	0.288	0.233	0.207	0.22	0.832	0.823	0.643	0.731	0.716	0.45	0.437	0.489	0.512	0.242	0.376	0.408	0.291
NCI-H2126	0.328	0.352	0.352	0.352	0.352	0.974	1.02	1.02	0.954	0.935	0.965	0.907	0.842	0.837	0.754	0.651	0.642	0.631
NCI-H2228	1	0.865	0.821	0.473	0.426	0.599	0.438	0.48	0.418	0.445	0.725	0.804	1.27	0.772	0.454	0.586	0.391	0.542
NCI-H2347	0.411	0.451	0.407	0.494	0.4	0.818	0.666	0.676	0.747	0.771	0.611	0.8	0.898	0.799	0.629	0.597	0.428	0.501
NCI-H2405	0.576	0.559	0.548	0.484	0.466	0.873	0.772	0.825	0.771	0.791	0.468	0.415	0.47	0.453	0.583	0.556	0.535	0.455
NCI-H3122	0.195	0.211	0.216	0.22	0.249	0.292	0.274	0.277	0.254	0.234	0.662	0.707	0.71	0.566	0.484	0.484	0.443	0.345
PC-3 [JPC-3]	0.538	0.547	0.554	0.493	0.555	1	0.885	0.998	0.942	0.665	0.519	0.614	0.726	0.666	0.703	0.526	0.797	0.478
PC-14	0.583	0.469	0.502	0.447	0.444	0.843	0.805	0.893	0.842	0.92	0.782	0.655	0.681	0.741	0.695	0.543	0.714	0.567
RERF-LC-KJ	1.23	1.04	0.845	0.755	0.859	0.859	0.887	0.764	0.686	0.78	0.776	0.9	0.929	0.969	0.347	0.467	0.453	0.493
SK-LU-1	0.429	0.401	0.467	0.341	0.4	0.898	0.775	0.731	0.693	0.871	1.08	0.86	1.12	1.02	0.675	0.629	0.662	0.589
SW 1573	0.427	0.394	0.369	0.308	0.402	0.711	0.868	0.637	0.648	0.713	0.865	0.834	1.01	1.15	0.717	0.421	0.434	0.251
